Where no end group is shown, it is not given here. [ ]: non-standard residue; d: D form. pY = N[C@@H](Cc1ccc(OP(=O)(O)O)cc1)C(=O)O
Assays:
ERK = experiment: p-ERK in hippocampal lysates of naive mice after i.v. peptide; format: in vivo, mouse; details: 10 mg/kg i.v., 3 hr
Method: (§1) Animals were anesthetized with pentobarbital (200 mg/kg i.p.) and decapitated, and the head was quickly immersed in liquid nitrogen for 4 s to rapidly cool the brain. The hippocampi were rapidly dissected on ice and homogenized in RIPA buffer, incubated on ice for 15 min, and centrifuged at 200,000×g for 10 min at 4° C. The supernatant was collected and stored at −80° C. until further analysis. TrkB was immunoprecipitated using TrkB antibody (1:1000, Millipore) and the lysates were incubated with 100 μL of protein A-Sepharose beads (Roche) overnight in 4° C. The beads/immune complexes were pelleted in a microcentrifuge and then resuspended in RIPA buffer and this procedure was repeated two additional times before adding 2×SDS PAGE sample buffer and boiled. After SDS PAGE, the gels were probed with TrkB and PLCγ1 antibody (1:1000, Cell signaling). Western blotting was conducted as previously described (He et al., 2010). Cell lysate and hippocampal homogenate were probed with p-PLCγ1 (pY783), PLCγ1, p-Akt (pS473), Akt, p-ERK (p44/p42) and ERK (1:1000, Cell signaling). The immunoreactivity of individual bands on western blots was measured by ImageJ software (National Institutes of Health) and normalized to PLCγ1, Akt or ERK contents. Equivalent protein loading among samples was monitored by β-actin (1:10000; Sigma) levels. […]

TrkB-PLCγ1 binding = target: T1, TrkB-PLCγ1 binding (Mus musculus, UniProt Q62077); experiment: Co-immunoprecipitation of TrkB and PLCγ1 from hippocampal homogenates after i.v. peptide; format: in vivo; details: 10 mg/kg i.v., 3 hr, hippocampus, compared to Scr
T1 construct: The hippocampi were rapidly dissected on ice and homogenized in RIPA buffer; from tissue; host or cells: hippocampus of naïve C57BL/6 mice
T1 sequence (Q62077 1-1302): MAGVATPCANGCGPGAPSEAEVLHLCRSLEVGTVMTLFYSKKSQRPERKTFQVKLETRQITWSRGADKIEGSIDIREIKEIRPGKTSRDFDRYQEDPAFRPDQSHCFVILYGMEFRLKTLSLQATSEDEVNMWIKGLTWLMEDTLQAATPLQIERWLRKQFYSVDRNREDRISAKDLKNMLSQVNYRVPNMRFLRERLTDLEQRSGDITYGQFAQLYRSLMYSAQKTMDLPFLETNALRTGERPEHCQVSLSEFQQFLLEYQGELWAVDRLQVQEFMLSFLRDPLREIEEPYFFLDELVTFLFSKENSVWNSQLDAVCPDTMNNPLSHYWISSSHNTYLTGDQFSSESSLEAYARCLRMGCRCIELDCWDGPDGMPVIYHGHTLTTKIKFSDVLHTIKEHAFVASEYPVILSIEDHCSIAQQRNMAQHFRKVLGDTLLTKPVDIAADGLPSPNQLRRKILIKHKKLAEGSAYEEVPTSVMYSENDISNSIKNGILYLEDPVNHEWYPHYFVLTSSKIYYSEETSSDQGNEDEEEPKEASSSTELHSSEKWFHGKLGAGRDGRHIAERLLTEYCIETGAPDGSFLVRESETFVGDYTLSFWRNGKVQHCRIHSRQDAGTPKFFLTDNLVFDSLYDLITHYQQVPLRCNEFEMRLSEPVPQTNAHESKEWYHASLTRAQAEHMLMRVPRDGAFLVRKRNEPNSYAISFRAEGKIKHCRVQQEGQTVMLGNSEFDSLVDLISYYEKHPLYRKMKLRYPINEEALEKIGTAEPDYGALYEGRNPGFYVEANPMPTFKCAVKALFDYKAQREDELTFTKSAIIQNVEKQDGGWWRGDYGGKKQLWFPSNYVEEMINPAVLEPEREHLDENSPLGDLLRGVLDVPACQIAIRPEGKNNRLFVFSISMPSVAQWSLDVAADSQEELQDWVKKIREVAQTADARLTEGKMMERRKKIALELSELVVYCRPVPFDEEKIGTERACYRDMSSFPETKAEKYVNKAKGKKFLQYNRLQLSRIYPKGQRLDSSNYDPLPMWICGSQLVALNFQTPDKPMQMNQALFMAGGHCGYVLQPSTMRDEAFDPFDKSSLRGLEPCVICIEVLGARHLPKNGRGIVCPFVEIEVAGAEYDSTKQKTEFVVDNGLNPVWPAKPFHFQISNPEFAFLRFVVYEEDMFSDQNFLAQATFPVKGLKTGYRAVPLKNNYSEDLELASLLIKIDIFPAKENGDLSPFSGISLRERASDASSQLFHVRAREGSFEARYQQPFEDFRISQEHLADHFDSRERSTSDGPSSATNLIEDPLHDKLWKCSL
Method: as §1

Substance: YGRKKRRQRRR-LQNLAKASPVpYLDI (YGRKKRRQRRRLQNLAKASPV[pY]LDI) [pY816]
- p-ERK in hippocampal lysates (ERK): neither p-Akt nor p-ERK was affected
- co-immunoprecipitation of TrkB and PLCγ1 (TrkB-PLCγ1 binding): inhibited the co-immunoprecipitation of TrkB and PLCγ1
